This note sets out measurements from ChEMBL document CHEMBL4732239, “Novel molecule combinations and corresponding hybrids targeting artemisinin-resistant Plasmodium falciparum parasites” (Bioorg Med Chem Lett, 2021).

The structures appear in SMILES notation.

A short description of data set [1]: Selective index, ratio of CC50 for African green monkey Vero cells to IC50 for plasmodium falciparum.
Data set [2] concerns Plasmodium falciparum. Kind of data set: Antimalarial activity against ring stage artemisinin-resistant Plasmodium falciparum F32-ART5 assessed as time taken for recrudescence by measuring parasitemia at 7 uM after 48 hrs. Type of data set: functional.
The subject of data set [3] is Plasmodium falciparum. Kind of data set: Antimalarial activity against ring stage artemisinin-sensitive Plasmodium falciparum F32-TEM assessed as time taken for recrudescence by measuring parasitemia at 7 uM after 48 hrs. Type of data set: functional.
For data set [4], the system named is Plasmodium falciparum. The experiment in a line: Antimalarial activity against artemisinin-sensitive Plasmodium falciparum F32-TEM by SYBR green dye based fluorescence assay. The class given is functional, organism-based.
The test system of data set [5] is Plasmodium falciparum. The experiment in a line: Antimalarial activity against Plasmodium falciparum assessed as difference of time taken for recrudescence Plasmodium falciparum […] between ring stage artemisinin-sensitive Plasmodium falciparum F32-TEM measured at 7 uM after 48 hrs. Type of data set: functional.
Data set [6] is described as follows: Cytotoxicity against African green monkey Vero cells assessed as inhibition of cell proliferation. The class given is cell-based. The conditions noted are these: chlorocebus sabaeus.
Data set [7] concerns Plasmodium falciparum. Kind of data set: Antimalarial activity against ring stage artemisinin-sensitive Plasmodium falciparum F32-TEM assessed as time taken for recrudescence by measuring parasitemia at 1 uM after 48 hrs. The class given is functional.
Data set [8] concerns Plasmodium falciparum. The experiment in a line: Antimalarial activity against Plasmodium falciparum assessed as difference of time taken for recrudescence Plasmodium falciparum F32-ART5 between ring stage artemisinin-sensitive Plasmodium falciparum F32-TEM measured at 1 uM after 48 hrs.
The subject of data set [9] is Plasmodium falciparum. The experiment in a line: Antimalarial activity against ring stage artemisinin-resistant Plasmodium falciparum F32-ART5 assessed as time taken for recrudescence by measuring parasitemia pretreated with dihydroartemisinin for 6 hrs followed by treated at 7 uM for 48 hrs by Quiescent-stage Survival Assay. The class given is functional.
In data set [10] the test system is Plasmodium falciparum. Kind of data set: Antimalarial activity against ring stage artemisinin-resistant Plasmodium falciparum F32-ART5 assessed as time taken for recrudescence by measuring parasitemia at 20 uM after 48 hrs. The class given is functional.
Data set [11] has as its system Plasmodium falciparum. Kind of data set: Antimalarial activity against Plasmodium falciparum assessed as difference of time taken for recrudescence Plasmodium falciparum […] between ring stage artemisinin-sensitive Plasmodium falciparum F32-TEM measured at 20 uM after 48 hrs. The class given is functional.
Data set [12] has as its system Plasmodium falciparum. The experiment in a line: Antimalarial activity against ring stage artemisinin-sensitive Plasmodium falciparum F32-TEM assessed as time taken for recrudescence by measuring parasitemia at 20 uM after 48 hrs. Type of data set: functional.
In data set [13] the test system is Plasmodium falciparum. The experiment in a line: Antimalarial activity against Plasmodium falciparum assessed as difference of time taken for recrudescence Plasmodium falciparum […] between ring stage artemisinin-sensitive Plasmodium falciparum F32-TEM measured at 18 uM after 48 hrs. The class given is functional.
Data set [14] relates to Plasmodium falciparum. The experiment in a line: Antimalarial activity against ring stage artemisinin-resistant Plasmodium falciparum F32-ART5 assessed as time taken for recrudescence by measuring parasitemia at 18 uM after 48 hrs. Type of data set: functional.
The subject of data set [15] is Plasmodium falciparum. The experiment in a line: Antimalarial activity against ring stage artemisinin-sensitive Plasmodium falciparum F32-TEM assessed as time taken for recrudescence by measuring parasitemia at 18 uM after 48 hrs. Type of data set: functional.
Data set [16] concerns Plasmodium falciparum. The experiment in a line: Antimalarial activity against ring stage artemisinin-resistant Plasmodium falciparum F32-ART5 assessed as time taken for recrudescence by measuring parasitemia at 1 uM after 48 hrs. Type of data set: functional.
The test system of data set [17] is Plasmodium falciparum. The experiment in a line: Antimalarial activity against ring stage artemisinin-resistant Plasmodium falciparum F32-ART5 assessed as time taken for recrudescence by measuring parasitemia pretreated with dihydroartemisinin for 6 hrs followed by treated at 200 nM for 48 hrs by Quiescent-stage Survival Assay. Type of data set: functional.

`Cc1[nH]c(C)c(-c2ccc(Oc3ccc(OC(F)(F)F)cc3)cc2)c(=O)c1Cl`: the “Ratio CC50/IC50” value in data set [1] was 190. The Time amounted to 2 days in the data set on Plasmodium falciparum [2], 8 days in the data set on Plasmodium falciparum [3] and 3 days with Plasmodium falciparum [5]. For the same compound, half-maximal inhibition in the data set with Plasmodium falciparum [4] (IC50) required 42 nM. The 50% cytotoxic concentration (CC50) in [6] was determined as 8000 nM.
Take `Cl.O=C(CCCC(=O)O[C@H](c1cc(C(F)(F)F)nc2c(C(F)(F)F)cccc12)[C@@H]1CCCCN1)OC1=C([C@H]2CC[C@H](c3ccc(Cl)cc3)CC2)C(=O)c2ccccc2C1=O`: the “Ratio CC50/IC50” value in data set [1] is given as 4545. Besides, the Time worked out at 14 days with Plasmodium falciparum [7] and 0 days with Plasmodium falciparum [8]. Further, in the data set on Plasmodium falciparum [4], it took 1.1 nM to reach half-maximal inhibition (IC50). Moreover, the half-maximal cytotoxic concentration (CC50) in [6] came out at 5000 nM.
For `O=C(CCCCCCC(=O)Oc1cc(Cl)ccc1Oc1ccc(Cl)cc1Cl)OC1=C([C@H]2CC[C@H](c3ccc(Cl)cc3)CC2)C(=O)c2ccccc2C1=O`, the “Ratio CC50/IC50” value in data set [1] is listed as 10000. Besides, the Time in the data set with Plasmodium falciparum [9] was found to be 10 days; in the data set on Plasmodium falciparum [2], 9 days; in the data set with Plasmodium falciparum [3], 12 days; in the data set on Plasmodium falciparum [5], 4 days. The compound also came in with a 50% inhibitory concentration (IC50) in the data set with Plasmodium falciparum [4] of 0.6 nM. Also, in data set [6], the cytotoxic concentration (CC50) is 6000 nM.
For the compound `Cc1nc(C)c(-c2ccc(Oc3ccc(OC(F)(F)F)cc3)cc2)c(OC(=O)CCCCCCC(=O)Oc2cc(Cl)ccc2Oc2ccc(Cl)cc2Cl)c1Cl`, the “Ratio CC50/IC50” value in [1] was over 710. Besides, the Time in the data set on Plasmodium falciparum [2] was 3 days; with Plasmodium falciparum [3] it was 4 days; in the data set on Plasmodium falciparum [10], 2 days; in the data set with Plasmodium falciparum [11] it was 1 days; in the data set on Plasmodium falciparum [12], 3 days; in the data set with Plasmodium falciparum [5], 0.6 days. The same compound came in with an IC50 in the data set on Plasmodium falciparum [4] of 169 nM. Also, the half-maximal cytotoxic concentration (CC50) in data set [6] is over 120000 nM.
Regarding `Cl.O=C(CCC(=O)O[C@H](c1cc(C(F)(F)F)nc2c(C(F)(F)F)cccc12)[C@@H]1CCCCN1)OC1=C([C@H]2CC[C@H](c3ccc(Cl)cc3)CC2)C(=O)c2ccccc2C1=O`, the “Ratio CC50/IC50” value in data set [1] turned out to be 6660. Besides, the Time turned out to be 14 days in the data set on Plasmodium falciparum [7] and 0 days with Plasmodium falciparum [8]. In the data set with Plasmodium falciparum [4], this compound came in with a half-maximal inhibitory concentration (IC50) of 0.6 nM. In addition, the CC50 in [6] was found to be 4000 nM.
In the case of `O[C@@H](c1cc(C(F)(F)F)nc2c(C(F)(F)F)cccc12)[C@H]1CCCCN1` [(S,R)-MEFLOQUINE], in data set [1], the “Ratio CC50/IC50” value was 241. Besides, in the data set with Plasmodium falciparum [7], the Time was over 30 days. The midpoint of inhibition in the data set on Plasmodium falciparum [4], the IC50, lay at 87 nM. The CC50 in data set [6] is 21000 nM.
Consider `C[C@@H]1CC[C@H]2[C@@H](C)C(=O)O[C@@H]3O[C@@]4(C)CC[C@@H]1[C@]32OO4` [ARTEMISININ], for which the results for the Time in the data set on Plasmodium falciparum [13], in the data set with Plasmodium falciparum [14] and with Plasmodium falciparum [15] were 12.5 days, 9 days and 22 days, respectively. The 50% inhibitory concentration (IC50) with Plasmodium falciparum [4] came to 18 nM.
For `O=C1C(O)=C([C@H]2CC[C@H](c3ccc(Cl)cc3)CC2)C(=O)c2ccccc21` [ATOVAQUONE], the “Ratio CC50/IC50” value in data set [1] is on record as 257. In addition, the Time worked out at 18 days in the data set on Plasmodium falciparum [9]; 21 days with Plasmodium falciparum [2]; 11 days with Plasmodium falciparum [16]; 23 days in the data set with Plasmodium falciparum [3]; 14 days in the data set with Plasmodium falciparum [7]; 3 days with Plasmodium falciparum [8]. Moreover, the Time entry in the data set on Plasmodium falciparum [5] is “<=1 day”. Further, the midpoint of inhibition in the data set with Plasmodium falciparum [4], the IC50, lay at 2.1 nM. Further, the half-maximal cytotoxic concentration (CC50) in [6] came to 500 nM.
Regarding `CCN(CC)CCCC(C)Nc1ccnc2cc(Cl)ccc12` (stereo unspecified) [CHLOROQUINE], the Time in the data set with Plasmodium falciparum [17] is 8 days.
In the case of `Oc1cc(Cl)ccc1Oc1ccc(Cl)cc1Cl` [TRICLOSAN], the “Ratio CC50/IC50” value in data set [1] is 5. Besides, the Time with Plasmodium falciparum [9] came to 7 days; in the data set with Plasmodium falciparum [2] it was 5 days; with Plasmodium falciparum [3], 6 days. The CC50 in data set [6] came out at 25000 nM.

A word on the IC50: it is the point on the concentration scale where inhibition reaches its midpoint. By CC50 is commonly meant the concentration giving 50% cytotoxicity.
